Experimental data: the NIST ThermoML archive (doi:10.1016/j.fluid.2012.08.030)

What was measured:
[1] = xn = mol fraction of the nth substance listed; conditions: 101 kPa, Liquid, Vibrating tube method
[2] = Liquid; for mass density: 101 kPa, Vibrating tube method; for vapor or sublimation pressure: Ebulliometric method (Recirculating still)

CCOCCO [2-ethoxyethan-1-ol] + CN1CCCC1=O
mass density [kg/m3], [1]
Conditions | 303.15 K | 308.15 K | 313.15 K | 318.15 K
x2 = 0 | 921.21 | 916.48 | 911.88 | 907.79
x2 = 0.101 | 936.06 | 931.85 | 927.8 | 924.28
x2 = 0.202 | 949.87 | 946.07 | 942.45 | 939.35
x2 = 0.302 | 962.64 | 959.15 | 955.84 | 953.02
x2 = 0.402 | 974.38 | 971.1 | 967.97 | 965.3
x2 = 0.503 | 985.1 | 981.93 | 978.86 | 976.19
x2 = 0.602 | 994.78 | 991.62 | 988.5 | 985.68
x2 = 0.702 | 1003.45 | 1000.2 | 996.91 | 993.82
x2 = 0.802 | 1011.12 | 1007.68 | 1004.1 | 1000.58
x2 = 0.851 | 1014.58 | 1011.01 | 1007.23 | 1003.46
x2 = 0.901 | 1017.78 | 1014.06 | 1010.06 | 1006
x2 = 0.926 | 1019.29 | 1015.48 | 1011.37 | 1007.14
x2 = 0.951 | 1020.74 | 1016.84 | 1012.59 | 1008.2
x2 = 0.982 | 1022.5 | 1018.47 | 1014.05 | 1009.43

COCCO [2-methoxyethan-1-ol] + CN1CCCC1=O
mass density [kg/m3], [1]
Conditions | 303.15 K | 308.15 K | 313.15 K | 318.15 K
x2 = 0 | 955.74 | 951.14 | 946.25 | 941.59
x2 = 0.084 | 965.64 | 961.46 | 957.05 | 952.92
x2 = 0.171 | 975.06 | 971.25 | 967.28 | 963.59
x2 = 0.261 | 983.98 | 980.47 | 976.83 | 973.49
x2 = 0.354 | 992.29 | 989 | 985.62 | 982.52
x2 = 0.451 | 999.91 | 996.77 | 993.52 | 990.55
x2 = 0.552 | 1006.73 | 1003.64 | 1000.44 | 997.46
x2 = 0.657 | 1012.64 | 1009.49 | 1006.19 | 1003.04
x2 = 0.767 | 1017.5 | 1014.17 | 1010.64 | 1007.15
x2 = 0.881 | 1021.17 | 1017.52 | 1013.58 | 1009.56
x2 = 0.916 | 1022 | 1018.23 | 1014.14 | 1009.93
x2 = 0.94 | 1022.5 | 1018.64 | 1014.43 | 1010.07
x2 = 0.97 | 1023.01 | 1019.04 | 1014.68 | 1010.13
x2 = 0.988 | 1023.3 | 1019.24 | 1014.78 | 1010.1

COCCO [2-methoxyethan-1-ol]
[2]
Conditions | mass density [kg/m3] | vapor or sublimation pressure [kPa]
303.15 K | 955.74 | –
308.15 K | 951.14 | –
313.15 K | 946.25 | –
318.15 K | 941.59 | –
364.15 K | – | 28.1
368.84 K | – | 34.2
373.48 K | – | 41.3
377.22 K | – | 47.9
380.17 K | – | 53.7
383.3 K | – | 60.5
386.66 K | – | 68.6
389.59 K | – | 76.4
391.28 K | – | 81.2
393.75 K | – | 88.7
395.78 K | – | 95.3
